{"source": "patent US5843481A", "about": "“Treatment of proliferative disorders, metastasaes, and drug resistant tumors with vanadate compounds and derivatives or analogues thereof” (priority 1994, dated 1998)", "key": {"[1]": {"assay": "Tolerability/toxicity of orthovanadate in mice, Example 9", "assay_type": "in vivo", "source_text": "However, subcutaneous injections of up to 500 μgms orthovanadate is tolerated by the animals. Slow administration of the orthovanadate would decrease toxicity and the animals may tolerate higher doses."}, "PGE2": {"tested_on": "PGE2", "assay": "PGE2 production by chondrocytes (RIA)", "assay_type": "cell-based, bovine", "conditions": "orthovanadate 100 uM", "method": "(§1) Bovine articular chondrocytes were isolated and plated as previously described (Kandel R. A. et al. Biochim. Biophys. Acta. 1053, 130-134, 1990). In order to determine the effect of orthovanadate on IL 1 and PMA (phorbol ester) induced responses, chondrocytes were incubated with orthovanadate (100 μM) for 2 hours before stimulation with IL 1 (10 ng/ml) or PMA ([…]). collagenase production was determined by incubating chondrocytes for 24 hours with IL 1 or PMA and the cell conditioned medium was assayed for collagenase activity using an ELISA procedure as described previously (Kandel et al. supra) PLA2 activity was measured by incorporating ^3 H-arachidonic acid (^3 H-AA) into the cells and then incubating the cells with medium containing 1 mg/ml BSA, either alone or in the presence of IL 1 or PMA, for 10 min. as previously described (Conquer, J. A. […], Biochim. Biophys. Acta. 1134, 1-6). The amount of ^3 H-AA liberated into the supernatant was determined. To measure PGE2 production, chondrocytes were incubated for 6 hours in Ham's F12 medium, either alone or with IL 1 or PMA. The supernatant was analyzed by RIA using an antibody specific for PGE2 (Dr. S. A. Jones, Mount Sinai Hospital, Toronto, Can.). In order to examine the expression of c-fos and c-jun, chondrocytes were incubated for 1 hour in the presence of IL-1, PMA or AA (3 μM). […]"}, "PLA2": {"tested_on": "PLA2", "assay": "3H-arachidonic acid release by chondrocytes (PLA2 activity)", "assay_type": "cell-based, bovine", "conditions": "orthovanadate 100 uM", "method": "as §1"}, "MDAY-D2 [2]": {"tested_on": "MDAY-D2", "assay": "Liver metastases of MDAY-D2 cells in mice (histology), Example 8", "assay_type": "in vivo", "source_text": "In order to examine the ability of vanadyl compounds to reduce tumor formation, growth and metastases, a specific animal model which allows investigation of all of these processes in the same animal was chosen. This model involves the injection of a metastatic haematopoietic cell line, MDAY-D2, into mice subcutaneously. These cells form a tumor at the site of injection and its size can be easily determined. In addition, these cells metastasize to the liver and metastases can be detected histologically after day 17 to 19. This model provides a very sensitive and reproducible approach to investigate the effect of vanadyl compounds on tumor growth and metastases.\nLivers were removed from animals treated as described above and prepared for histological examination. FIG. 16 compares liver sections from untreated (C), orthovanadate (VO)(500 μg/day) and vanadyl sulphate (VS)(500 μg/day) treated animals. Nodules are identified with an arrow."}, "MDAY-D2 [3]": {"tested_on": "MDAY-D2", "assay": "MDAY-D2 tumor growth in mice, combination therapy, Example 7", "assay_type": "in vivo", "method": "Twenty mice were injected subcutaneously with 2×10^5 cells on Day 1. At day 4, the mice were divided into four groups of five mice. Group one (control) received subcutaneous injections of 50 μl of water. Group two received daily intraperitoneal injections of 50 μl of 250 mM N-acetylcysteine. Group three received daily subcutaneous injections of 50 μl of 10 mg/ml of orthovanadate. Group four received daily intraperitoneal injections of 50 μl of […] N-acetylcysteine and 20 minutes later received 50 μl of subcutaneous injection of 50 μl of 10 mg/ml of orthovanadate. On day 10 the treatment was stopped. The animals were sacrificed on Day 13 and analyzed for tumor growth."}, "[4]": {"tested_on": "non-proliferating chondrocytes", "assay": "Viability of non-proliferating chondrocytes (high cell density)", "assay_type": "cell-based, bovine", "conditions": "0-50 μM, 48 hours; FIG. 6", "method": "As described in example 1, orthovanadate inhibited fos, jun and collagenase expression. If fos and jun expression are required for cellular proliferation, then orthovanadate should inhibit chondrocyte proliferation. In order to compare the effect of orthovanadate on non-proliferating and proliferating chondrocytes, chondrocytes were plated at both high cell density (2×10^6 to 4×10^6 cells/per well on a six well plate) (nonproliferating) and at a lower cell density (5×10^5 to 1×10^6 cells/per well on a six well plate) (proliferating) and then maintained for 48 hours. The cells were then incubated in media (HAMS F12) containing 0-50 μM Orthovanadate for an additional 48 hours. The cells were harvested and the number of viable cells determined."}, "[5]": {"tested_on": "KB8, KB8-5 and KB85-11 cells", "assay": "Viability of drug resistant ovarian cancer cell lines", "assay_type": "cell-based", "source_text": "The effect of orthovanadate on three ovarian cancer cell lines, KB8, KB8-5 and KB85-11, which have increasing drug resistance, respectively, relative to the parent cell line, KB3-1 was compared. These drug resistant cell lines are not killed by several classes of chemotherapeutic agents such as colchicine, vinblastine and doxorubicin. […] The cells were harvested and the number of viable cells determined."}, "fos": {"tested_on": "fos", "assay": "Northern blot analysis of fos mRNA expression in chondrocytes", "assay_type": "cell-based, bovine", "method": "The cytokine interleukin 1 (IL 1) has been used to identify the intermediate second messengers which regulate the expression of fos and jun.\nIn order to elucidate this possibility, the effect of DPI on fos and jun mRNA levels induced by IL 1 was investigated. RNA from chondrocytes treated with IL 1 in the presence and absence of DPI were analyzed by Northern blot analysis using either fos or collagenase cDNA probes.\nSince superoxides are rapidly converted to hydrogen peroxide in the cell by superoxide dismutase, whether hydrogen peroxide could mimic the effect of IL 1 in the induction of fos expression was investigated. RNA was extracted from chondrocytes (Kandel et al. supra) treated with H2 O2 for 30, 60 and 90 minutes and examined by Northern blot analysis using a fos cDNA probe.\nBovine articular chondrocytes were isolated and plated as previously described (Kandel R. A. et al. Biochim. Biophys. Acta. 1053, 130-134, 1990). In order to determine the effect of orthovanadate on IL 1 and PMA (phorbol ester) induced responses, chondrocytes were incubated with orthovanadate (100 μM) for 2 hours before stimulation with IL 1 (10 ng/ml) or PMA ([…]). collagenase production was determined by incubating chondrocytes for 24 hours with IL 1 or PMA and the cell conditioned medium was assayed for collagenase activity using an ELISA procedure as described previously (Kandel et al. supra) PLA2 activity was measured by incorporating ^3 H-arachidonic acid (^3 H-AA) into the cells and then incubating the cells with medium containing 1 mg/ml BSA, either alone or in the presence of IL 1 or PMA, for 10 min. as previously described (Conquer, J. A. […], Biochim. Biophys. Acta. 1134, 1-6). The amount of ^3 H-AA liberated into the supernatant was determined. To measure PGE2 production, chondrocytes were incubated for 6 hours in Ham's F12 medium, either alone or with IL 1 or PMA. The supernatant was analyzed by RIA using an antibody specific for PGE2 (Dr. S. A. Jones, Mount Sinai Hospital, Toronto, Can.). In order to examine the expression of c-fos and c-jun, chondrocytes were incubated for 1 hour in the presence of IL-1, PMA or AA (3 μM). Chondrocytes were washed in PBS and the total RNA extracted as previously described (Cruz. et al, 1991, Biochem. J. 277, 327-330). RNA samples were run on formaldehyde agarose gels and transferred to nylon membrane for northern analysis using cDNA probes for c-fos and c-jun.\nCells were also incubated as described above with 20 mM N-acetylcyateine for 20 min. and then incubated with IL 1 for an additional 1 or 12 hours. The RNA was extracted and examined by Northern blot analysis using cDNA probes for c-fos and collagenase."}, "MDAY-D2 cells": {"tested_on": "MDAY-D2 cells", "assay": "Viability of MDAY-D2 cells with different vanadyl compounds", "assay_type": "cell-based, mouse", "conditions": "0-50 μM, 48 hours; FIG. 8", "method": "Three different forms of vanadyl compounds were examined for their effect on viability of cancer cell lines. MDAY-D2 cells were incubated in media containing 0-50 μM orthovanadate, vanadyl sulphate, or vanadyl hydroperoxide for 48 hours. The cells were harvested and the number of viable cells determined. […] Although there were slight differences in sensitivity, the overall cell death was similar."}}, "data": [{"molecule": "[O]=[V]([O-])([O-])[O-]", "note": "[orthovanadate]", "values": [{"measurement": "intraperitoneal toxicity", "setting": "[1]; intraperitoneal, high doses", "value": "toxic"}, {"measurement": "oral toxicity", "setting": "[1]; oral, 0.5 mg/ml, laboratory mice", "value": "gastric toxicity"}, {"measurement": "tolerated dose, subcutaneous", "setting": "[1]; subcutaneous injections", "value": "up to 500 μgms"}, {"measurement": "production of PGE2 (IL 1 or PMA)", "setting": "PGE2", "value": "did not inhibit"}, {"measurement": "IL 1 or PMA induced release of 3H-AA", "setting": "PLA2", "value": "did not inhibit"}, {"measurement": "levels of metastases in liver", "setting": "MDAY-D2 [2]; 500 μg/day, FIG. 16", "value": "did not have detectable levels of metastases"}, {"measurement": "effectiveness at preventing metastases", "setting": "MDAY-D2 [2]; preliminary results, liver histology", "value": "effective at preventing metastases"}, {"measurement": "animals that died during the experiment", "setting": "MDAY-D2 [3]; 10 mg/ml s.c. daily, group of five mice", "value": "One orthovanadate treated animal died"}, {"measurement": "animals without detectable tumors", "setting": "MDAY-D2 [3]; day 13, FIG. 14, orthovanadate: of four mice, combination: of five", "value": "two had no detectable tumors"}, {"measurement": "toxicity to chondrocytes plated at high cell density (non-proliferating)", "setting": "[4]", "value": "did not effect"}, {"measurement": "effectiveness in killing drug resistant cell lines", "setting": "[5]; 0-50 μM, 48 hours, FIG. 10", "value": "equally effective"}, {"measurement": "cell death by three days of administration", "setting": "[5]; three days", "value": "most of the cells had died"}, {"measurement": "IL 1, PMA and AA induced c-fos expression", "setting": "fos; orthovanadate 100 μM, FIGS. 4 and 18", "value": "completely inhibited"}, {"measurement": "fos expression in response to factors such as IL 1 or arachidonic acid", "setting": "fos; summary statement", "value": "completely inhibit"}, {"measurement": "effectiveness in killing MDAY-D2 cells", "setting": "MDAY-D2 cells", "value": "equally effective"}]}]}
